pIC50: −log10 of the molar value.
Molecular target: T1, MET kinase (Homo sapiens, UniProt P08581)
T1 construct: Sf9 insect cell culture expressing the kinase domain of human Met; 6x Histidine tag (TEV-cleavable) (cleaved yes); made in house; host or cells: Sf9 insect cells
Test: Met Bioassay (luminescence-based enzyme assay, Kinase-Glo)
Type: biochemical
Conditions: 10 μM ATP
Source text: In addition to the c-Abl PK/LDH coupled assay (above), homogeneous luminescence-based inhibitor screening assays were developed for c-Abl, MET, AurA, and PDK1 kinases (among others). Each of these assays made use of an ATP depletion assay (Kinase-Glo™, Promega Corporation, Madison, Wis.) to quantitate kinase activity. The Kinase-Glo™ format uses a thermostable luciferase to generate luminescent signal from ATP remaining in solution following the kinase reaction. The luminescent signal is inversely correlated with the amount of kinase activity.
Materials: Poly Glu-Tyr (4:1) substrate (Sigma Cat# P-0275), ATP (Sigma Cat#A-3377, FW=551), HEPES buffer, pH 7.5, Bovine serum albumin (BSA) (Roche 92423420), MgCl2, Staurosporine (Streptomyces sp. Sigma Cat#85660-1MG), white Costar 384-well flat-bottom plate (VWR Cat#29444-088). MET kinase (see below), Kinase-Glo™ (Promega Cat#V6712).
Stock Solutions: 10 mg/ml poly Glu-Tyr in water, stored at −20° C.; 100 mM HEPES buffer, pH 7.5 (5 ml 1M stock+45 ml miliQH2O); 10 mM ATP (5.51 mg/ml in dH2O) stored at −20° C. (diluted 50 μl into total of 10 ml miliQH2O daily=50 μM ATP working stock); 1% BSA (1 g BSA in 100 ml 0.1M HEPES, pH 7.5, stored at −20° C.), 100 mM MgCl2; 200 μM Staurosporine, 2× Kinase-Glo™ reagent (made fresh or stored at −20° C.).
Standard Assay Setup for 384-well format (20 μl kinase reaction, 40 μl detection reaction): 10 mM MgCl2; 0.3 mg/ml poly Glu-Tyr; 0.1% BSA; 1 μl test compound (in DMSO); 0.4 μg/ml MET kinase; 10 μM ATP; 100 mM HEPES buffer. Positive controls contained DMSO with no test compound. Negative controls contained 10 μM staurosporine. The kinase reactions were initiated at time t=0 by the addition of ATP. Kinase reactions were incubated at 21° C. for 60 min, then 20 μl of Kinase-Glo™ reagent were added to each well to quench the kinase reaction and initiate the luminescence reaction. After a 20 min incubation at 21° C., the luminescence was detected in a plate-reading luminometer.
The cell pellets produced from half of a 12 L Sf9 insect cell culture expressing the kinase domain of human Met were resuspended in a buffer containing 50 mM Tris-HCl pH 7.7 and 250 mM NaCl, in a volume of approximately 40 ml per 1 L of original culture. One tablet of Roche Complete, EDTA-free protease inhibitor cocktail (Cat# 1873580) was added per 1 L of original culture. The suspension was stirred for 1 hour at 4° C. Debris was removed by centrifugation for 30 minutes at 39,800×g at 4° C. The supernatant was decanted into a 500 ml beaker and 10 ml of 50% slurry of Qiagen Ni-NTA Agarose (Cat# 30250) that had been pre-equilibrated in 50 mM Tris-HCl pH 7.8, 50 mM NaCl, 10% Glycerol, 10 mM Imidazole, and 10 mM Methionine, were added and stirred for 30 minutes at 4° C. The sample was then poured into a drip column at 4° C. and washed with 10 column volumes of 50 mM Tris-HCl pH 7.8, 500 mM NaCl, 10% Glycerol, 10 mM Imidazole, and 10 mM Methionine. The protein was eluted using a step gradient with two column volumes each of the same buffer containing 50 mM, 200 mM, and 500 mM Imidazole, sequentially. The 6× Histidine tag was cleaved overnight using 40 units of TEV protease (Invitrogen Cat#10127017) per 1 mg of protein while dialyzing in 50 mM Tris-HCl pH 7.8, 500 mM NaCl, 10% Glycerol, 10 mM Imidazole, and 10 mM Methionine at 4° C. The 6× Histidine tag was removed by passing the sample over a Pharmacia 5 ml IMAC column (Cat# 17-0409-01) charged with Nickel and equilibrated in 50 mM Tris-HCl pH 7.8, 500 mM NaCl, 10% Glycerol, 10 mM Imidazole, and 10 mM Methionine. The cleaved protein bound to the Nickel column at a low affinity and was eluted with a step gradient. The step gradient was run with 15% and then 80% of the B-side (A-side=50 mM Tris-HCl pH 7.8, 500 mM NaCl, 10% Glycerol, 10 mM Imidazole, and 10 mM Methionine; B-side=50 mM Tris-HCl pH 7.8, 500 mM NaCl, 10% Glycerol, 500 mM Imidazole, and 10 mM Methionine) for 4 column volumes each. […]

T1 sequence (P08581 1078-1345 limits assumed): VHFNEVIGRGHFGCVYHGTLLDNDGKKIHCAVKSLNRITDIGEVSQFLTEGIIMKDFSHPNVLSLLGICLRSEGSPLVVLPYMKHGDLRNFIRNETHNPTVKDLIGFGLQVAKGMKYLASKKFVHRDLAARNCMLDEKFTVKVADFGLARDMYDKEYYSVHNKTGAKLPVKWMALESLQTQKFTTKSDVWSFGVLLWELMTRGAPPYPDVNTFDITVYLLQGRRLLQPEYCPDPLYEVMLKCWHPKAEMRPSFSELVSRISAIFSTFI

| pIC50 | SMILES |
| --- | --- |
| > 6.00 | COc1ccc(-c2cnc3[nH]cc(-c4ccc(N)nc4)c3c2)cc1OC [AE56] |
| 5.30 to 6.00 | COCCNc1ccc(-c2c[nH]c3ncc(-c4ccc(OC)c(OC)c4)cc23)cn1 [AE57] |
